These are literature values, as cited in US12245592B2, “Encapsulated biocides and biorepellents” (Aerogel ApS, priority 2018, dated 2025).

For this data set the following is noted: pure biocide.
On to `N#Cc1c(-c2ccc(Cl)cc2)[nH]c(C(F)(F)F)c1Br` [Econea, 4-bromo-2-(4-chlorophenyl)-5-(trifluoromethyl)-1H-pyrrole-3-carbonitrile], for which the Biocide density is listed as 1.71 gr/cm^3.
Regarding Zinc pyrithione, the Biocide density is given as 1.78 gr/cm^3.
For the compound `N#C[S][Cu][S]C#N` [Copper thiocyanate], the Biocide density is on record as 2.84 gr/cm^3.
`On1ccccc1=S.On1ccccc1=S.[Cu]` [Copper pyrithione, copper pyrithione]: the Biocide density is given as 1.82 gr/cm^3.
